Here are results for nine compounds from ChEMBL document CHEMBL1201862, “PubChem BioAssay data set” (2004).

Experiment in all cases: NCI anticancer screen, dose series, 48 h
Test [1] concerns 786-0.
Test [2] concerns CAKI-1.
Test [3] has as its system COLO 205.
Test [4] has as its system HL-60.
For test [5], the system named is HOP-62.
In test [6] the test system is K562.
Test [7] deals with M14.
In test [8] the test system is MDA-MB-435.
Test [9] relates to MDA-N.
The subject of test [10] is MOLT-4.
Test [11] relates to Malme-3M.
For test [12], the system named is NCI-H23.
Test [13] concerns NCI-H522.
The test system of test [14] is NCI/ADR-RES.
In test [15] the test system is PC-3.
The test system of test [16] is SK-MEL-28.
The subject of test [17] is SK-MEL-2.
The subject of test [18] is SN12C.
The test system of test [19] is SNB-19.
The test system of test [20] is U-251.

“And” between values parts separate entries of the source, which are not always exact repeats. Identical values can stand only once.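 Values below derive from 48-hour exposures of cells grown in 96-well plates, with endpoints linearly interpolated between the two concentrations bracketing the appropriate inhibition level. GI50 marks 50% less growth.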 The source made the active and inactive calls. Cut-off read from the data, not from the text of the source: active = GI50 up to about 1.1 µM and inactive = higher.

Regarding `NCC1OC(n2cnc3c(=O)[nH]c(N)nc32)C(O)C1O` (stereo not given), the GI50 is > 100 µM (inactive) in test [1]; > 100 µM (inactive) in [2]; > 100 µM (inactive) in [3]; > 100 µM (inactive) in test [4]; > 100 µM (inactive) in test [5]; 1 µM (active) in test [6]. Besides, the GI50 in test [7], in test [8], in test [9], in test [10], in test [11] and in test [12] was > 100 µM (inactive) each time. The GI50 in test [13], in [14], in test [15], in test [16], in [17] and in test [18] was > 100 µM (inactive) in each case. Besides, the GI50 in test [19] and in test [20] was > 100 µM (inactive) each time.

Regarding `CCN(CCCl)c1cc(CN(C)C)cc(NC(=O)C23CCC(C(=O)Nc4cc(CN(C)C)cc(N(CC)CCCl)c4)(CC2)CC3)c1`, the GI50 is 0.073 µM (active) in test [1]; 11.1 µM (inactive) in [2]; 1.49 µM (inactive) in test [3]; 0.0157 µM (active) in [4]; 0.372 µM (active) in test [5]; 0.738 µM (active) in test [6]. Moreover, the GI50 in [7] was 2.97 µM (inactive); in test [8], 1.39 µM (inactive); in [9], 1.12 µM (inactive); in test [10] it was < 0.01 µM (active); in test [11], 1.71 µM (inactive); in test [12], 0.424 µM (active). Besides, the GI50 is 0.202 µM (active) in [13]; 29.9 µM (inactive) in [14]; 0.351 µM (active) in test [15]; 1.75 µM (inactive) in [16]; 2.39 µM (inactive) in [17]; 0.245 µM (active) in [18]. The results for the GI50 in test [19] and in [20] were 0.113 µM (active) and 0.764 µM (active), respectively.

As for `O=C1OC2C(O)C(=O)OC2C1O` (stereo not given), the GI50 in test [1], in test [2], in test [3], in [4], in test [5] and in [6] was > 100 µM (inactive) each time. For the same compound, the GI50 in test [7], in test [8], in test [9], in test [10], in test [11] and in [12] was > 100 µM (inactive) in each case. Moreover, the GI50 in test [13], in [14], in test [15], in test [16], in test [17] and in test [18] was > 100 µM (inactive) each time. Further, the GI50 in test [19] and in [20] was > 100 µM (inactive) throughout.

For `COC(=O)CC1C2(C)C3=C(C)C(c4ccoc4)CC3OC2C2OC(=O)C3(C)C=CC(=O)C1(C)C23` (stereo not given), the GI50 in [1] was 0.869 µM (active); in test [2], 0.841 µM (active); in test [3], 1.3 µM (inactive); in test [4], 0.372 µM (active); in [5] it was 3.28 µM (inactive); in test [6], 0.474 µM (active). For the same compound, the GI50 in test [7] is 1.32 µM (inactive); in test [8] it was 0.656 µM (active); in test [9], 0.385 µM (active); in test [10], 0.455 µM (active); in [11] it was 1.02 µM (active); in [12] it was 1.57 µM (inactive). Besides, the GI50 in [13] is 0.575 µM (active); in test [14], 2.04 µM (inactive); in test [15], 1.18 µM (inactive); in test [16] it was 1.16 µM (inactive); in test [17], 1.64 µM (inactive); in [18], 0.859 µM (active). In addition, the GI50 in test [19] is 2.25 µM (inactive); in test [20], 1.48 µM (inactive).

`NS(=O)(=O)c1ccc(Nc2c3ccccc3nc3c(C(=O)NCCCN(CCO)CCO)cccc23)cc1`: the GI50 is 19.3 µM (inactive) in test [1]; > 100 µM (inactive) in test [2]; 13 µM (inactive) in test [3]; > 10 µM (inactive) in [4]; 24.8 µM (inactive) in [5]; 18.7 µM (inactive) in [6]. In addition, the GI50 is 24.2 µM (inactive) in test [7]; 19.6 µM (inactive) in [8]; 19.8 µM (inactive) in test [9]; 4.86 µM (inactive) in test [10]; 20.4 µM (inactive) in [11]; 23.4 µM (inactive) in test [12]. For the same compound, the GI50 in [13] is 18.2 µM (inactive); in [14], > 100 µM (inactive); in test [15], 34.2 µM (inactive); in test [16], 22.4 µM (inactive); in [17], 20.1 µM (inactive); in test [18], 16.4 µM (inactive). The values for the GI50 in test [19] and in [20] were 15.2 µM (inactive) and 13.9 µM (inactive), respectively.

`COc1cc(C(c2cccc3ccccc23)N2C(=O)CCC2C(=O)O)cc(OC)c1OC` (stereo not given): the GI50 in test [1], in test [2], in [3], in [4], in [5] and in test [6] was > 100 µM (inactive) each time. The GI50 in [7], in test [8], in [9], in test [10], in test [11] and in test [12] was > 100 µM (inactive) throughout. In addition, the GI50 in [13], in test [14], in [15], in test [16], in test [17] and in test [18] was > 100 µM (inactive) in each case. In addition, the GI50 in test [19] and in [20] was > 100 µM (inactive) each time.

On to `COc1ccc2c(c1)N=C1CSC(c3cccc(Br)c3)N1C2` (stereo not given), for which the GI50 was 17.4 µM (inactive) in [1]; 6.19 µM (inactive) in test [2]; 17.4 µM (inactive) in [3]; 9.51 µM (inactive) in test [4]; 22.8 µM (inactive) in test [5]; 3.85 µM (inactive) in [6]. The GI50 in test [7] was 16.6 µM (inactive); in test [8], 10.5 µM (inactive); in test [9], 11.5 µM (inactive); in test [10] it was 2.99 µM (inactive); in test [11] it was 18 µM (inactive); in test [12], 17.9 µM (inactive). In addition, the GI50 in test [13] was 14.4 µM (inactive); in [14], 6.98 µM (inactive); in test [15], 11.5 µM (inactive); in test [16], 32.8 µM (inactive); in test [17] it was 17.6 µM (inactive); in test [18] it was 19.5 µM (inactive). Further, the GI50 was 22.5 µM (inactive) in [19] and 17.5 µM (inactive) in [20].

`CC(=O)OC(/C=C/c1ccccc1)P1(=O)N(CC(C)(C)C)[C@@H]2CCCC[C@H]2N1CC(C)(C)C` (stereo not given in full): the GI50 is 9.62 µM (inactive) and 7.38 µM (inactive) in test [1]; 12.8 µM (inactive) and 8.99 µM (inactive) in test [2]; 3.69 µM (inactive) and 3.6 µM (inactive) in test [3]; 5.37 µM (inactive) and 5.71 µM (inactive) in test [4]; 16.2 µM (inactive) and 13.1 µM (inactive) in test [5]; 5.02 µM (inactive) and 4.68 µM (inactive) in test [6]. Besides, the GI50 is 5.9 µM (inactive) and 5.24 µM (inactive) in test [7]; 7.36 µM (inactive) and 10 µM (inactive) in test [8]; 11 µM (inactive) and 7.73 µM (inactive) in test [9]; 3.63 µM (inactive) and 3.83 µM (inactive) in [10]; 12.3 µM (inactive) and 13.1 µM (inactive) in test [11]; 7.05 µM (inactive) and 5.18 µM (inactive) in [12]. The GI50 in test [13] is 3.76 µM (inactive) and 3.32 µM (inactive); in test [14], 5.89 µM (inactive) and 5.11 µM (inactive); in [15], 3.44 µM (inactive) and 3.03 µM (inactive); in test [16], 17.7 µM (inactive) and 13.5 µM (inactive); in test [17] it was 11.1 µM (inactive) and 5.96 µM (inactive); in test [18], 10.4 µM (inactive) and 7.59 µM (inactive). The GI50 in test [19] is 10.5 µM (inactive) and 8.15 µM (inactive); in test [20] it was 8.81 µM (inactive) and 6.38 µM (inactive).

On to `O=C1CC[C@@]2(O)[C@H]3Cc4ccc(-c5ccccc5)c5c4[C@@]2(CCN3CC2CC2)[C@H]1O5`, for which the GI50 in test [1] is 15.8 µM (inactive); in test [2] it was 18.3 µM (inactive); in test [3], 17.7 µM (inactive); in [4], 17.9 µM (inactive); in [5] it was 22.4 µM (inactive); in [6] it was 24.3 µM (inactive). Besides, the GI50 in [7] is 17.6 µM (inactive); in test [8] it was 13.2 µM (inactive); in test [9], 16.4 µM (inactive); in [10], 18.6 µM (inactive); in test [11], 15.5 µM (inactive); in test [12] it was 24.1 µM (inactive). For the same compound, the GI50 was 14.7 µM (inactive) in test [13]; 16.3 µM (inactive) in [14]; 19 µM (inactive) in test [15]; 42.4 µM (inactive) in test [16]; 17.9 µM (inactive) in test [17]; 24.2 µM (inactive) in [18]. For the same compound, the GI50 in test [19] was 25.5 µM (inactive); in [20], 17 µM (inactive).
